“Also recorded” adds a separate entry of the source.

In data set [1] the test system is OPCs. As to the kind of experiment: OPC differentiation into oligodendrocytes, myelin marker expression by qPCR. Format: cell-based, mouse. To be noted: differentiating conditions, 3 days. The method, then: FIGS. 13A-13G: Exogenous clusterin inhibits OPC differentiation. Expression of Mbp (FIG. 13A), Plp1 (FIG. 13B), Cnp (FIG. 13C), and Myrf (FIG. 13D), measured by qPCR in OPCs or OLGs treated with vehicle or 8 μg/ml of clusterin for 72 hours (n=7). Representative images (FIG. 13E) and quantification (FIG. 13F) of MBP expression in cells treated with or without 8 μg/ml of clusterin for 72 hours (n=5: Scale bar=50 μm). FIG. 13G. Quantification of OPCs viability following a 72 hours incubation with or without 8 μg/ml clusterin (n=11).
(§1) FIGS. 14A-14D: Clusterin inhibits differentiation by blocking IL-9 production. FIG. 14A. Quantification of cytokines present in the supernatant from OPCs treated with 8 μg/mL clusterin or vehicle control (n=6). Expression of Mbp (FIG. 14B), Plp1 (FIG. 14C), and Myrf (FIG. 14D), measured by qPCR in OPCs cultured in proliferation media (OPC Vehicle), differentiation media supplemented with vehicle (OLG Vehicle), or 8 μg/ml of is clusterin (OLG CLU), or 100 ng/ml IL-9 (OLG IL-9), or 8 μg/ml of clusterin and 100 ng/ml IL-9 (OLG CLU+IL-9) for 72 hours (n=11).
OPCs were prepared from neurospheres as previously described (Franco et al., 2015) and subsequently switched into differentiating conditions in the presence of recombinant clusterin (8 μg/ml) or vehicle (PBS) for 3 days. […]

Data set [2] concerns OPCs. As to the kind of experiment: OPC differentiation, MBP positive oligolineage cells by immunofluorescence. To be noted: clusterin 8 μg/ml, 72 hours, differentiation media. In kind it is cell-based, mouse. The method, then:
(§2) FIGS. 6A-6D: Clusterin inhibits OPC differentiation. FIG. 6A is a series of bar graphs showing expression of Mbp, Pip1, Cnp, and Myrf, measured by qPCR in cells cultured in proliferation media (OPC_Veh), differentiation media (OLG_Veh), or differentiation media supplemented with 8 μg/ml of clusterin (OLG_Clu). Data was analyzed using a mixed-effects analysis followed by a Tukey's multiple comparisons test. N=3 individual experiments, n=7 samples per group. FIG. 6B is a series of representative fluorescence micrograph images of cells cultured in differentiation media (Vehicle) or differentiation media supplemented with 8 μg/ml of clusterin (Clusterin). […] FIG. 6C is a bar graph of the quantification of the differentiation efficiency of cells depicted in FIG. 6B. […] Data was is analyzed using a repeated measures t-test. […]
(§3) FIGS. 13A-13G: Exogenous clusterin inhibits OPC differentiation. Expression of Mbp (FIG. 13A), Plp1 (FIG. 13B), Cnp (FIG. 13C), and Myrf (FIG. 13D), measured by qPCR in OPCs or OLGs treated with vehicle or 8 μg/ml of clusterin for 72 hours (n=7). Representative images (FIG. 13E) and quantification (FIG. 13F) of MBP expression in cells treated with or without 8 μg/ml of clusterin for 72 hours (n=5: Scale bar=50 μm). […] Quantification of OPCs viability following a 72 hours incubation with or without 8 μg/ml clusterin (n=11). […]

In data set [3] the test system is OPCs. As to the kind of experiment: OPC viability, CCK8 assay. In kind it is cell-based, mouse. To be noted: clusterin 8 μg/ml, 72 hours. The method, then: as §2, §3
(In general: Tetrazolium dyes change colour on reduction, which living cells bring about.)

In a further data set the test system is IL-9 secretion by OPCs. As to the kind of experiment: Luminex Assay on the supernatant of OPCs (cytokine and growth factor secretion). Format: cell-based, mouse. The following applies: clusterin 8 μg/mL vs vehicle. The method, then:
as §1
We next investigated what factors might be mediating clusterin's inhibition of OPC differentiation.
To identify whether clusterin can modify the composition of the OPC secretome, an unbiased multiplex analysis on the conditioned media of OPCs treated with vehicle or clusterin for 1-3 days was performed. […] IL-9 is a growth factor for T-cell subsets 64, and IL-9 receptor is expressed by OPCs in vivo. However, production and secretion of IL-9 by OPCs has not been previously reported.

Data set [4] relates to clusterin expression in OPCs. As to the kind of experiment: Clusterin expression in treated primary OPCs by qPCR. In kind it is cell-based, mouse. To be noted: for clusterin expression in OPCs by qPCR (FIG. 7): 10 ng/ml TNFα 3 h, 10 μM H2O2 3 h, 3 μM Aβ 2 h, apoptotic cells 1:1 6 h, 100 μg/ml myelin debris 4 h; for clusterin expression in OPCs by qPCR (FIG. 12): 4-hour in vitro treatment: 3 μM Aβ, 100 μg/ml myelin, 10 ng/ml TNFα or IFNγ, 10 μM H2O2; for effect of phagocytosis block on clusterin upregulation by myelin debris or apoptotic cells in OPCs: Cytochalasin D 1 μM with 100 μg/ml myelin debris. As for the experimental part:
FIGS. 7A-7F: Macromolecules and protein aggregates cause OPCs to upregulate clusterin. OPCs treated with 10 ng/ml TNFα for 3 hours (FIG. 7A), 10 μM H2O2 for 3 hours (FIG. 7B), 3 μM […] for 2 hours (FIG. 7C), a 1:1 ratio of apoptotic cells for 6 hours (FIG. 7D), 100 μg/ml myelin debris for 4 hours (FIG. 7E), or 100 μg/ml myelin debris and 1 μM Cytochalasin D for 4 hours (FIG. 7F). Clusterin transcript quantity was measured using qPCR. N=1-2 independent experiments. n=4-8 samples/condition. All data was analyzed using a repeated measures t-test. ns: not significant; CytoD: Cytochalasin D. *p<0.05, **p<0.01.
FIGS. 12A-12I: Phagocytosis of extracellular debris drives clusterin expression in OPCs. FIG. 12A. Representative images of OPCs (PDGFRα in green, Olig2 in red) surrounding Aβ plaques (n=4; Scale bar=20 μm). FIG. 12B. Representative orthogonal view of CypHer-labeled Aβ (white) inside an OPC (PDGFRα in green. Olig2 in red) following injection of Aβ (n=6; Scale bar=10 μm). Representative images (FIG. 12C) and quantification (FIG. 12D) of clusterin expression (red) in the ipsilateral (CypHer-Aβ injected: green) and contralateral (FITC injected; green) hemispheres following injection (n=6 mice: Scale bar=100 μm) FIG. 12E. qPCR analysis of clusterin expression in OPCs following a 4-hour in vitro treatment with 3 μM Aβ and the phagocytosis blocker CytoD (1 μM) or vehicle control (n=24). f, Quantification of clusterin protein in OPCs following 72-hour treatment with 3 μM Aβ or vehicle control (n=10). qPCR analysis of clusterin expression in OPCs following a 4-hour in vitro treatment with 100 μg/ml myelin (FIG. 12G), cytokines (10 ng/ml TNFα or 10 ng/ml IFNγ; FIG. 12H) or 10 μM H2O2 (FIG. 12I) and CytoD (1 μM) or vehicle control (n=4-19).
Oligomeric […] Drives Expression of Clusterin in OPCs Given the impact of clusterin on OPCs differentiation in vitro, and the evidence supporting that myelin is impacted in AD (Roher et al., 2002; Desai et al., 2009; Desai et al., 2010; Zhan et al., 2014), we wanted to understand what factors initiate expression of clusterin in OPCs. We treated primary OPCs with TNFa, H2O2, oligomeric Aβ, myelin debris, and apoptotic cells and monitored expression of clusterin by qPCR. These treatments were selected because of their association with AD pathology (Sengupta et al., 2016; Ahmad et al., 2017; Chang et al., 2017). […] In order to test if phagocytosis was required to mediate the upregulation of clusterin, the same experiment was repeated in the presence of Cytochalasin D to block actin polymerization and prevent engulfment (Axline & Reaven, 1974; Soldati & Schliwa, 2006).
We next investigated whether Aβ treatment increases clusterin expression in OPCs. […] We noted that increase in clusterin expression was not specific to the phagocytic clearance of Aβ oligomers, as we also observed it when OPCs engulfed cellular debris.
For orientation: Quantitative PCR measures a nucleic acid by following its amplification.

The test system of another data set is clusterin. The following applies: patients with prostate cancer, Phase 3 clinical trial; cited from earlier work.
Data set [5] has as its system clusterin expression in the corpus callosum. As to the kind of experiment: Cuprizone model of demyelination, clusterin immunofluorescence in the corpus callosum. In kind it is in vivo. To be noted: 5 weeks cuprizone diet then 1 week normal chow vs naïve mouse. From the text: FIG. 9A is a photomicrograph showing clusterin expression (white) in the corpus callosum of a naïve mouse and a mouse following 5-weeks of cuprizone diet followed by 1-week of normal chow to allow remyelination to begin. FIG. 9B is a bar graph showing quantification of clusterin coverage of the corpus callosum depicted in FIG. 9A. N=1 independent experiment, n=5 mice per group. Data analyzed using an unpaired t-test. ***p<0.001. Error bars represent standard error of the mean.
Based on preliminary data, it is anticipated that genetic and the therapeutic silencing of clusterin ameliorate the pathology observed in the 5×FAD mice. If a difference in the number of oligodendrocytes and myelination is undetected, the 5×FAD are tested with the cuprizone model of demyelination. Diet supplemented with cuprizone (5 weeks at 0.3% w/w) induces extensive demyelination of the medial corpus callosum (Doucette et al., 2010). However, demyelination induced in this manner is reversible, as remyelination occurs following the removal of the drug. […] Sections of the medial corpus callosum (midline region above the for mix and between the lateral ventricles) are stained as proposed herein above to quantify OPCs and oligodendrocytes at the end of cuprizone treatment as well as 0.5, 1, 1.5, and 2 weeks following the removal of cuprizone, as described (see Fernandez-Castaneda et al., 2020).

The test system of a further data set is OPCs (OLIG2+/PDGFRα+). As to the kind of experiment: Tamoxifen-induced YFP labelling of OPCs in PDGFRα-CreER; R26-EYFP reporter mice. In kind it is in vivo, mouse. The following applies: 2 tamoxifen injections 3 days apart, counted ten days after the first injection, adult mice.
For a further data set, the system named is APP/PS1 model of AD. To be noted: cited from earlier work.

Method for OPCs (OLIG2+/PDGFRα+): FIG. 1A is a representative image of YFP labeled OPCs (PDGFRα+Olig2+) cells following 2 tamoxifen injections. […] FIG. 1B is a graph of percent of OPCs expressing YFP following 0, 1, 2, or 3 tamoxifen injections. Each injection was given 3 days apart. n=2-3 mice/group.
To investigate the optimal dose of tamoxifen required for the reporter expression, we treated adult mice (6 weeks old) with 1, 2, or 3 tamoxifen injections (each injection was administered 3 days apart) and counted the number of YFP positive OPCs (OLIG2+/PDGFRα+) ten days after the first injection (see FIG. 1B).

In the case of “IL-9: interleukin 9 cytokine added exogenously (100 ng/ml) to differentiating OPCs”, in the data set on OPCs [1] (IL-9 100 ng/ml plus clusterin 8 μg/ml), the “Expression of Mbp, Plp, and Myrf by qPCR in clusterin-treated OPCs supplemented with IL-9” value was “prevented clusterin inhibition; also recorded: restored expression of these mature oligodendrocyte genes to a level similar as the untreated control”.

Take “clusterin: recombinant clusterin, a secreted chaperone protein, containing an HIS-tag, added exogenously to OPCs”: the “Expression of myelin markers (Mbp, Plp, Cnp, and Myrf) as determined by qPCR” value with OPCs [1] (recombinant clusterin 8 μg/ml vs vehicle (PBS)) was “decreased; also recorded: striking decrease; also recorded: blocks OPC differentiation”. For the same molecule, the “percentage of MBP positive oligolineage cells (immunofluorescence)” value in the data set on OPCs [2] is on record as “decrease; also recorded: fewer MBP-positive oligodendrocytes”. Further, in the data set on OPCs [3], the OPC viability entry is “did not impact OPC viability; also recorded: not due to OPC death”. In addition, the “secretion of growth factors and cytokines by OPCs” value with IL-9 secretion by OPCs is recorded as “altered secretion of multiple proteins”. The “IL-9 secretion by OPCs” value with IL-9 secretion by OPCs (1-3 days) was “marked reduction; also recorded: blocked IL-9 release from OPCs”.

With `OO` [H2O2], in data set [4], the “clusterin expression in OPCs by qPCR (FIG. 7)” value was “did not influence clusterin expression” and the “clusterin expression in OPCs by qPCR (FIG. 12)” value (“clusterin expression … (FIG. 12)” below) is on record as “failed to induce changes in clusterin expression”.

Consider “Custirsen: ASO targeting clusterin in Phase 3 clinical trial; OGX-011 is 5-CAGCAGCAGAGTCTTCATCAT-3′ (SEQ ID NO: 11) (listed as DNA, chemistry not given here; listed as Homo sapiens)”, for which the “levels of clusterin in patients” value with clusterin is “safely and effectively reduce levels of clusterin”.

Take `C=C1[C@@H](C)[C@H]2[C@H](Cc3ccccc3)NC(=O)[C@]23[C@H](OC(C)=O)/C=C/[C@@](C)(O)C(=O)[C@@H](C)C/C=C/[C@H]3[C@@H]1O` [Cytochalasin D]: the “effect of phagocytosis block on Aβ-induced clusterin upregulation in OPCs” value in data set [4] (CytoD 1 μM with 3 μM Aβ, 4 hours) was “prevented Aβ from increasing clusterin production in OPCs”. The “effect of phagocytosis block on clusterin upregulation by myelin debris or apoptotic cells in OPCs” value in data set [4] (4 hours) is “internalization of the cargo is necessary to mediate the upregulation of clusterin”; in data set [4] (4 hours, listed as CytoD), “abrogated”.

For `O=C(NN=C1CCCCC1)C(=O)NN=C1CCCCC1` [Cuprizone], the “clusterin expression in the corpus callosum” value in data set [5] was “upregulated”.

`CC/C(=C(\c1ccccc1)c1ccc(OCCN(C)C)cc1)c1ccccc1` [tamoxifen]: in the data set with OPCs (OLIG2+/PDGFRα+), the “percent of OPCs expressing YFP” value was determined as 95%.

In the case of TNFα, in [4], the “clusterin expression in OPCs by qPCR (FIG. 7)” value is reported as “did not influence clusterin expression” and the “clusterin expression … (FIG. 12)” value is “failed to induce changes in clusterin expression”.

With `CN1CCC[C@@H]1CCO[C@](C)(c1ccccc1)c1ccc(Cl)cc1` [Clemastine], in the data set on APP/PS1 model of AD, the “myelin integrity and memory performance” value was “improved both myelin integrity and memory performance”.

B1: IFNγ: cytokine upregulated in Alzheimer's disease, 10 ng/ml (protein, UniProt P01579 24-161, looked up)
Interferon gamma: QDPYVKEAENLKKYFNAGHSDVADNGTLFLGILKNWKEESDRKIMQSQIVSFYFKLFKNFKDDQSIQKSVETIKEDMNVKFFNSNKKKRDDFEKLTNYSVTDLNVQRKAIHELIQVMAELSPAAKTGKRKRSQMLFRG
As to B1, the “clusterin expression … (FIG. 12)” value in data set [4] is reported as “failed to induce changes in clusterin expression”.

The values above are taken from patent US20250283074A1, “CLUSTERIN OVEREXPRESSION IN ALZHEIMER’S DISEASE” (University of Virginia Patent Foundation, priority 2021, published 2025).
